Data set [1] has as its target T1, High affinity nerve growth factor receptor (Homo sapiens, UniProt P04629). As to the kind of experiment: Inhibition of TrkA (unknown origin) by cell based assay.
Target sequence in this assay (P04629 whole entry): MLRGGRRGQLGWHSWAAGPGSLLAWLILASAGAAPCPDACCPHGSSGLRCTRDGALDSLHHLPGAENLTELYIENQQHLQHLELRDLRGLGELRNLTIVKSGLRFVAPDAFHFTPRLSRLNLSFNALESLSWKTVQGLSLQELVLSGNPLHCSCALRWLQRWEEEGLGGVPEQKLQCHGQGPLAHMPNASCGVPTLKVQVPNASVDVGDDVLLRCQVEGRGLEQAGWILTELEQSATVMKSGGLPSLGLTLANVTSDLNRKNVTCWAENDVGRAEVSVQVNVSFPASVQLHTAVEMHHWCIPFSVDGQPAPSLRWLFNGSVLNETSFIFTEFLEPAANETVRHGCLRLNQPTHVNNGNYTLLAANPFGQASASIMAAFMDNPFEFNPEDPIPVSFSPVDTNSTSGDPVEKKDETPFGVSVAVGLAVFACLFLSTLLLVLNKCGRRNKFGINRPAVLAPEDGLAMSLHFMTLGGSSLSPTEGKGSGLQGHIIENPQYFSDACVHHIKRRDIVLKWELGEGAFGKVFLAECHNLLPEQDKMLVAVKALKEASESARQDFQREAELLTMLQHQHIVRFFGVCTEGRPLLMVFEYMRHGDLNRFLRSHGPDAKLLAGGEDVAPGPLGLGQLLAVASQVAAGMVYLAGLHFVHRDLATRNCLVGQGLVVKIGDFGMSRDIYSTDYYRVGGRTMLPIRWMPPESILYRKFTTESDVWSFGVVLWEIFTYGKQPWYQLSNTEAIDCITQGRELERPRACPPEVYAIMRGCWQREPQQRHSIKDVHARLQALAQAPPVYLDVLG
Data set [2] concerns the target T2, BDNF/NT-3 growth factors receptor (Homo sapiens, UniProt Q16620). Kind of data set: Inhibition of His6 tagged human recombinant TrkB (455 to end amino acids) expressed in Sf21 cells at 10 uM.
Target sequence in this assay (Q16620 32-822 limits assumed): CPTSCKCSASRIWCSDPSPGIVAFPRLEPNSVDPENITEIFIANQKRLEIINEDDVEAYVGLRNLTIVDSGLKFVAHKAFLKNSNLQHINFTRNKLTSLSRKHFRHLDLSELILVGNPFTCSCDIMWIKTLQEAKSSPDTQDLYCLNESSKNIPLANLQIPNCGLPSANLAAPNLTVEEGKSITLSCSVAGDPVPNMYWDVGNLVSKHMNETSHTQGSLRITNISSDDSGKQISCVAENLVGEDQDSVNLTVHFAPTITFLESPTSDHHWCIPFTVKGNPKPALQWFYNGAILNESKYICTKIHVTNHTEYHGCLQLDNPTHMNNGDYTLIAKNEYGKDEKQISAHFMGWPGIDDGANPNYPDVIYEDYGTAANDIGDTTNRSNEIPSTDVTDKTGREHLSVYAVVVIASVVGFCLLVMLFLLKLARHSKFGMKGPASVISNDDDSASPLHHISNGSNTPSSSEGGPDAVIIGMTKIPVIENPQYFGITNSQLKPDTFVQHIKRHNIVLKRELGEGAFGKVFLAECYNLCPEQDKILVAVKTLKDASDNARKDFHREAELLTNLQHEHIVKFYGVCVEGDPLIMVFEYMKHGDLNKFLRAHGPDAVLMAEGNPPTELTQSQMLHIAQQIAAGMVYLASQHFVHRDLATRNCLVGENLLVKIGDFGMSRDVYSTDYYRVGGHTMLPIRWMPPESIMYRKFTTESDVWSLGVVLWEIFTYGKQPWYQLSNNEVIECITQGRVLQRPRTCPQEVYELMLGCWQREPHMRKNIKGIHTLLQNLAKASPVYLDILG
Data set [3] addresses T1, High affinity nerve growth factor receptor. Kind of data set: Inhibition of His-tagged recombinant human TrkA using Alexa-Fluor tracer-236 incubated for 60 mins by TR-FRET based Lantha-screen Eu kinase binding assay. (In general: In TR-FRET formats the signal depends on donor and acceptor labels being close together.)
Target sequence in this assay (P04629 whole entry): as the sequence (P04629 whole entry) above
Data set [4] addresses T3, Tumor necrosis factor receptor superfamily member 16 (Homo sapiens, UniProt P08138).
T3 sequence (P08138 whole entry): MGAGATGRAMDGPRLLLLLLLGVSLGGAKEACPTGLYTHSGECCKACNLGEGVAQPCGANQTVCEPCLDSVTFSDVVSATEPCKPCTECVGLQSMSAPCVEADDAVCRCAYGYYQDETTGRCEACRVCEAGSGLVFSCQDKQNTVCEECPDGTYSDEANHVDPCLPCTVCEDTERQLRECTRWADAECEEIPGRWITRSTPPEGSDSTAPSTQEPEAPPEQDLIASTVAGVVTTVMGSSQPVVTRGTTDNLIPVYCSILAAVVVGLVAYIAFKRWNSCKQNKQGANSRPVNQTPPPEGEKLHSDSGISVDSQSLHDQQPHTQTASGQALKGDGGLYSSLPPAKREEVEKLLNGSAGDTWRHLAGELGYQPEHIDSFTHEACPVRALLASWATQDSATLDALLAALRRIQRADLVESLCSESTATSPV
As to the kind of experiment: Inhibition of mouse NGF binding to p75 (unknown origin) by SPR method. (In general: Surface plasmon resonance follows binding to a sensor surface in real time, without labels.)

Data set [5] has as its target T1, High affinity nerve growth factor receptor. Kind of data set: Inhibition of mouse NGF binding to TrkA (unknown origin) by SPR method relative to control.
Target sequence in this assay (P04629 33-796 limits assumed): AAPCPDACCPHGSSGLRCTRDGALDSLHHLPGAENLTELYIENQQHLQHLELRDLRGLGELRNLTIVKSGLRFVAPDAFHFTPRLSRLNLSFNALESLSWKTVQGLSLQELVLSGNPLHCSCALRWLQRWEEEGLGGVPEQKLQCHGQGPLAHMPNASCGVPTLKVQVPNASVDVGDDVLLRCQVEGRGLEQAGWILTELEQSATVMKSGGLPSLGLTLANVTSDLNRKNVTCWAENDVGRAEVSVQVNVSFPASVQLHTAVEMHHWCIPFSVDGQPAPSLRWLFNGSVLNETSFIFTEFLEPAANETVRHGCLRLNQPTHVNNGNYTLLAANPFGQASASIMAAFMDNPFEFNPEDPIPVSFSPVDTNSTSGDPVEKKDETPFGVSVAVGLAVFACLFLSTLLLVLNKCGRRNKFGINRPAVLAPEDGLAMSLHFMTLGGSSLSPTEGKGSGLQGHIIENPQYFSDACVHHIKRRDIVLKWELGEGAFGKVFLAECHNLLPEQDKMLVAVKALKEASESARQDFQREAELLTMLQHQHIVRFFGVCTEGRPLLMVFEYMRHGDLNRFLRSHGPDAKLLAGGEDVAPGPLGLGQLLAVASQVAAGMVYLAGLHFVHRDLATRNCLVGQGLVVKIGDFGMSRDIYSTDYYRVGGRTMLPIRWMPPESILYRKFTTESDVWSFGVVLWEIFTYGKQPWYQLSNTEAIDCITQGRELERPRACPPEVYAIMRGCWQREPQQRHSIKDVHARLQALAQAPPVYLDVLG
Data set [6] deals with T4, Tumor necrosis factor receptor superfamily member 16 (Homo sapiens) (UniProt P08138).
T4 sequence (whole entry): T3 sequence (P08138 whole entry)
As to the kind of experiment: Inhibition of mouse NGF binding to p75 (unknown origin) by SPR method relative to control.

In data set [7] the target is Beta-nerve growth factor (Mus musculus, UniProt P01139). Kind of data set: Inhibition of mouse NGF binding to TrkA (unknown origin) by SPR method. Set-up: species or system Homo sapiens.
Data set [8] deals with T2, BDNF/NT-3 growth factors receptor. Kind of data set: Inhibition of N-terminal GST tagged human TrkB cytoplasmic domain (456 to 822 amino acids) pre-incubated for 15 mins before peptide substrate addition for 180 mins by fluorescence based assay.
Target sequence in this assay (Q16620 whole entry): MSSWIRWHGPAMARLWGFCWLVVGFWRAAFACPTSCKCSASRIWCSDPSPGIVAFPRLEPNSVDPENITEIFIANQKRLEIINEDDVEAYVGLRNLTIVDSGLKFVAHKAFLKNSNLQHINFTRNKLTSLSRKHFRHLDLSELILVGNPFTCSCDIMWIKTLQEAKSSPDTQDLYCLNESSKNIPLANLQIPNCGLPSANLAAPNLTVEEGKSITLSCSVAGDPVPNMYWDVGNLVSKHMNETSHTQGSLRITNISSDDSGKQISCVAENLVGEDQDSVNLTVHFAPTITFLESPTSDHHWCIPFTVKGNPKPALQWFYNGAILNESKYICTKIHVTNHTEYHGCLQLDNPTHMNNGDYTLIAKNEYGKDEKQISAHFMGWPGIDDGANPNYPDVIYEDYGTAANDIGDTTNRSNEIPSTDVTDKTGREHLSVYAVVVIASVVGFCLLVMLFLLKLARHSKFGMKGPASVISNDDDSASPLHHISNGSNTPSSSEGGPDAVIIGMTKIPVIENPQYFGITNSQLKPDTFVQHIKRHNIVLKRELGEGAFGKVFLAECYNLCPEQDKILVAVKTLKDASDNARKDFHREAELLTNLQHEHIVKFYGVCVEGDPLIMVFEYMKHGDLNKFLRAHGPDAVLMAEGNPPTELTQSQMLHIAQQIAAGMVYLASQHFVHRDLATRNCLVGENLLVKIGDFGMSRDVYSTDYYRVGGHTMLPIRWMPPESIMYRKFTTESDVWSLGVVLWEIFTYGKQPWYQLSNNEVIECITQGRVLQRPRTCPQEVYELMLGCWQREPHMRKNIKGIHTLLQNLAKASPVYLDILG
Data set [9] has as its target T1, High affinity nerve growth factor receptor. Kind of data set: Inhibition of N-terminal GST tagged human TrkA cytoplasmic domain (436 to 790 amino acids) pre-incubated for 15 mins before peptide substrate addition for 180 mins by fluorescence based assay.
Target sequence in this assay (P04629 whole entry): as the sequence (P04629 whole entry) above
Data set [10] has as its system P-gp. Kind of data set: Binding affinity to P-gp (unknown origin) assessed as efflux ratio by cell based assay. The format is ADME. The settings on record: human, not told.
In data set [11] the target is T5, High affinity nerve growth factor receptor (Rattus norvegicus, UniProt P35739). As to the kind of experiment: Inhibition of binding of [125I]-NGF to TrkA in rat PC12 cells incubated for 2 hrs by gamma counting method. The data set is classed as cell-based, PC-12.
In data set [12] the target is T5, High affinity nerve growth factor receptor. As to the kind of experiment: Inhibition of NGF-induced TrkA auto-phosphorylation in rat PC12 cells incubated for 15 mins by chemiluminescence based method. The format is cell-based, PC-12.
Data set [13] relates to Rattus norvegicus. Kind of data set: Inhibition of mechanical allodynia in it dosed rat model of L5/L6 nerve ligation injury. The data set is classed as functional.
Data set [14] relates to Rattus norvegicus. Kind of data set: Inhibition of thermal sensitization-induced tactile allodynia in it dosed rat model of L5/L6 nerve ligation injury. The data set is classed as functional.
The test system of data set [15] is Rattus norvegicus. As to the kind of experiment: Inhibition of mechanical allodynia ip dosed rat model of L5/L6 nerve ligation injury. The data set is classed as functional.
In data set [16] the target is T2, BDNF/NT-3 growth factors receptor. Kind of data set: Inhibition of BDNF-stimulated TrkB phosphorylation in human U2OS cells by beta-galactosidase reporter gene based PathHunter profiling assay. The data set is classed as cell-based. In general terms: A reporter such as luciferase makes a cellular process visible.
Target sequence in this assay (Q16620 whole entry): as the sequence (Q16620 whole entry) above
Data set [17] addresses NT-3 growth factor receptor (Homo sapiens, UniProt Q16288). As to the kind of experiment: Inhibition of NT3-stimulated TrkC phosphorylation in human U2OS cells by beta-galactosidase reporter gene based PathHunter profiling assay. The format is cell-based.
The target of data set [18] is T1, High affinity nerve growth factor receptor. As to the kind of experiment: Inhibition of NGF-stimulated TrkA phosphorylation in human U2OS cells by beta-galactosidase reporter gene based PathHunter profiling assay. The data set is classed as cell-based.
Target sequence in this assay (P04629 whole entry): as the sequence (P04629 whole entry) above

The record followed here is ChEMBL document CHEMBL3860101, “Targeting the Nerve Growth Factor (NGF) Pathway in Drug Discovery. Potential Applications to New Therapies for Chronic Pain” (J Med Chem, 2017).

Chain of Beta-nerve growth factor (P01139 whole entry, looked up, the tested form may be a part): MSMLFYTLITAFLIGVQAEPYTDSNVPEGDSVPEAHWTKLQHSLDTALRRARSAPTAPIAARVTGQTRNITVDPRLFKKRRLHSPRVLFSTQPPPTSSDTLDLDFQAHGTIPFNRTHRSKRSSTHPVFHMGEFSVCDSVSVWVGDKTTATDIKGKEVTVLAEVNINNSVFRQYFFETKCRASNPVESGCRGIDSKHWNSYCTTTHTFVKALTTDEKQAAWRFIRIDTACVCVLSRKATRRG
T5 sequence (P35739 whole entry): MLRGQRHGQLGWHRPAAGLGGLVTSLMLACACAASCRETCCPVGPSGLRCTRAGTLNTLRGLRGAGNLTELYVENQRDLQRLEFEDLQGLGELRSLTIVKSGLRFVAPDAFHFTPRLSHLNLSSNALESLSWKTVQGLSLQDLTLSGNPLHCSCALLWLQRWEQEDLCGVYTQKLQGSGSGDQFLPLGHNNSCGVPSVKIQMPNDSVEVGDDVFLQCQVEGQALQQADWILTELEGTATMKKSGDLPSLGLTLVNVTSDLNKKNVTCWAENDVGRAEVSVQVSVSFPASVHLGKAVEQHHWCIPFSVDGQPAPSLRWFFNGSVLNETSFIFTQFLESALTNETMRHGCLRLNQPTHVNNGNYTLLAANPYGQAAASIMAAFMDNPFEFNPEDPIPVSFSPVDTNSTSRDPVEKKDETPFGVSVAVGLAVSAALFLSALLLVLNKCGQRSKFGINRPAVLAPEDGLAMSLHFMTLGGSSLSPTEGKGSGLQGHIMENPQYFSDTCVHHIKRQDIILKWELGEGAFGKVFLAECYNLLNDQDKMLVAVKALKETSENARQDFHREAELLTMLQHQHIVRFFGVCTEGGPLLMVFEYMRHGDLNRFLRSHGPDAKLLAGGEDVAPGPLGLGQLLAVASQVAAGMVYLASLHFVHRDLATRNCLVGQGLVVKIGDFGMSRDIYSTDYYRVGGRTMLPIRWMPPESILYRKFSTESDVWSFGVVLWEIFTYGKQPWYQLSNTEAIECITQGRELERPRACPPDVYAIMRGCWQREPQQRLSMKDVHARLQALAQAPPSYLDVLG

What is called IC50 is the point on the concentration scale where inhibition reaches its midpoint. `CC(=O)NCc1ncc(NC(=O)c2ccc(C(F)(F)F)c(-c3ccn(C)n3)c2)c(-c2ccccc2)n1` had an IC50 in [1] of 0.004 µM.

By inhibition is commonly meant the relative decrease from the control value, in per cent. As to `COCc1ccc2cccc(NC(=O)Nc3c(C)c(-c4cnn(C)c4)nn3-c3ccccc3)c2c1`, the inhibition in data set [2] was 91%. The IC50 in data set [3] is < 0.1 µM.

Turning to `Cc1cc2nc3c(=O)[nH]c(=O)nc-3n(C)c2cc1C=O`, the IC50 in [4] was determined as 244 µM; in data set [7] it was 33 µM. Moreover, the results for the Imax in [5] and in data set [6] were 100% and 37%, respectively.

Molecule `Cn1c2c(N)cc(N)cc2c(=O)n2nc(C(=O)O)c([N+](=O)[O-])c12` registered an Imax in data set [6] of 70%.

With `COc1ccc(COc2ccc(Cn3c(N)nc4cc(-c5cnn(C)c5)ccc43)cc2OC)cc1`, the IC50 in data set [8] and in data set [9] was 0.0003 µM in each case.

Turning to `Cn1c2ccc(NC(=O)c3ccccc3)cc2c(=O)n2nc(C(=O)O)cc12`, the IC50 in data set [4] is 110 µM; in data set [7], 47 µM. The Imax in [5] came to 100%; in data set [6] it was 65%.

`COCCCc1cc(Cl)c(Cl)cc1NC(=O)Nc1c(C)c(-c2cnn(C)c2)nn1-c1ccccc1`: in [3], the IC50 is < 0.1 µM.

By efflux ratio is commonly meant the permeability from basolateral to apical divided by that in the opposite direction, in the common usage. For `COc1ccc(C(=O)c2cn(C(C)C)c3ncnc(N)c23)cc1NC(=O)Nc1ccc(Cl)cc1Cl` [CE-245677], the efflux ratio in [10] was found to be 1.

As to `Cc1c(-c2cnn(C)c2)nn(-c2ccccc2)c1NC(=O)Nc1cc(C(F)(F)F)nn1-c1ccccc1`, the IC50 in [3] was < 0.1 µM.

One may read the EC50 as the concentration needed to bring the measured effect to its halfway point. For `O=C1c2cccc3cc([N+](=O)[O-])cc(c23)C(=O)N1NCCO`, the IC50 was > 300 µM in data set [4], 5.88 µM in [11] and 149 µM in [7]. Further, the Imax in [5] is 44%; in [6], 6.2%. Moreover, the EC50 in [12] was found to be 22 µM. Further, the ED50 in data set [13] is 34.6 µg; in data set [14], 50 µg; in data set [15] it was 38 mg/kg.

As for `O=C(O)c1ccc(Nc2cc(N3CCN(C4CCCCC4)CC3)c3noc4c3c2C(=O)c2ccccc2-4)cc1`, the values for the IC50 in data set [16], in data set [17] and in [18] were > 10 µM, > 10 µM and 0.05 µM, respectively.

As to `Cc1c(-c2cnn(C)c2)nn(-c2ccccc2)c1NC(=O)Nc1sc(C(F)(F)F)nc1-c1ccccc1`, the inhibition in [2] was 97%. Further, the IC50 in data set [3] was < 0.1 µM.
